Columns and labels:
Type in all cases: cell-based
[1] = system: mouse embryonic fibroblasts (MEFs); test: pre-miRNA and miRNA levels in mouse embryonic fibroblasts under stress
Experimental: (§1) (FIG. 7A) miRNA expression level analysis in the motor neuron cell line NSC-34, treated with 6.25 nM Thapsigargin for 24 hrs, relative to cells treated with carrier alone (DMSO). Shown are average and s.d. of qPCR analyses of 3 independent experiments. Pre-miRNAs (light grey, normalized to Gapdh) and miRNAs (dark grey, normalized to Snord68). (FIG. 7B) mRNA levels encoding for proteins involved in the canonical stress response, normalized to the expression of beta-actin. (FIG. 7C) miRNA expression level analysis in mouse embryonic motor neurons, treated with 5 nM Thapsigargin for 72 hrs, relative to cells treated with carrier alone (DMSO). Shown are average and s.d. of qPCR analyses of three independent experiments. Pre-miRNAs (light grey, normalized to Gapdh and beta actin) and miRNAs (dark grey, normalized to Snord70). (FIG. 7D) mRNA markers of the canonical stress response, normalized to the expression of beta-actin. miRNA expression level analysis in NSC-34 cells, treated with Paraquat (PQ) (1 mM, 12 hrs, FIG. 7E) and sodium arsenite (0.5 mM, 60 min, FIG. 7F). pre-miRNA normalized to beta-actin mRNA (FIGS. 7E-F) and miRNAs to 5S (FIG. 7E) or to U6 and 5S (FIG. 7F). (FIGS. 7G-I) miRNA expression level analysis in mouse embryonic Wild-type fibroblasts (light grey) or phospho-mutant eIF2a S51A cells (black) treated with Thapsigargin (5 nM, 72 hrs) relative to carrier alone. Pre-miRNA (FIG. 7G) and mature miRNA (FIG. 7H) levels normalized to Gapdh and Snord68, respectively. (FIG. 7I) ATF4, which is induced by phosphorylation of eIF2a, was not induced in phospho-mutant eIF2a S51A cells. Significance of p-values from ANOVA tests is indicated by *p<0.05; **p<0.01. (FIGS. 7J-K) Western-Blot analysis of lysates from untreated NSC-34 cells (control) or cells treated with sodium arsenite (0.5 mM, 60 min). Phospho-specific immunodetection of eIF2a S51 phosphorylation (peIF2a) and total eIF2a levels (FIG. 7J), Dicer and Ago2 levels (FIG. 7K). (FIG. 7L) miRNA expression level analysis in mouse embryonic fibroblasts treated with Puromycin (1 μg/ml, 24 hrs), relative to cells treated with carrier alone (water). Pre-miRNAs (light grey, normalized to Gapdh) and miRNAs (dark grey, normalized to Snord68).
(FIG. 9A) The ratio of pre-miRNA to mature miRNA levels in NSC-34 cells, transfected with plasmids as indicated and in cells treated for 72 hrs with carrier alone (water, black) or with cycloheximide (CHX, 0.02 μg/ml, gray). Data normalized to control plasmid transfection. Pre-miRNAs further normalized to Gapdh (for FUS R495X, TDP-43 A315T) or to beta-actin (SOD1 G93A) and miRNA levels normalized to Snord68. Average of three independent experiments except for pre-miRNAs in the study of FUS R495X (n=2). Targeted quantitative mass spectrometry analysis of changes in the binding of Ago2 or Dicer to a set of proteins interactors under stress (FIGS. 9B-E). Immunoprecipitated Ago2-Flag (FIG. 9B) or Dicer-Flag (FIG. 9C) from HEK 293 cells, cultured under basal conditions or treated with sodium arsenite (0.5 mM, 60 min) was subjected to targeted mass-spectrometry analysis. Data is averaged from two or three different peptide standards per protein and normalized to the levels of co-immunoprecipiated peptides from untreated cells. Statistically significant result in a student t-test, between arsenite and control treatment is denoted (*p<0.05). Targeted mass spectrometry of (FIG. 9D) Dicer cofactors or (FIG. 9E) SG components, immunoprecipitated with AGO-Flag in FUS R495X-expressing HEK 293 that were further treated for 72 hrs with carrier alone or Cycloheximide (0.02 μg/ml). (FIG. 9F) The ratio of pre-miRNA to mature miRNA levels in mouse embryonic fibroblasts, pretreated for 5 hrs with HSP90 inhibitors (17-AAG, 1 μM or Geldanamycin, 1 μM) and then incubated for 36 more hours with Thapsigargin (5 nM) in combinations with the respective HSP90 inhibitor. […]

NSC-34 cells = test: Stress-induced change of pre-miRNA processing in NSC-34 cells (qPCR)
Experimental: as §1
RNA was extracted using Tri reagent (Molecular Research Center Inc.) or Qiazol with consecutive use of the miRNeasy Mini Kit (Qiagen). Pre-miRNA and miRNA reverse transcription was performed using miScript Kits No. I & II (Qiagen). Quantitative analysis of miRNA and pre-miRNA expression performed in more than 3 independent biological repeats and additionally in technical duplicates with StepOnePlus quantitative Real-Time PCR System and 2-sided ANOVA-test performed with DataAssist Software (Life technologies Inc.). Next-generation sequencing of mouse precursor miRNAs and mature miRNAs was performed on two independent experimental repeats, as described in Newman et al. [Newman et al. (2011) RNA 17(10): 1795-1803]. miRNAs were normalized to spiked-in controls and pre-miRNAs were normalized to Snord72 and Snord95.
Stress and cytoplasmic stress granules (SGs) emerge as major pathogenic mechanisms of ALS [Kim et al. (2014) Nat Genet 46(2): 152-160]. Stress pathways are thought to control miRNA activity [Etude and Hornstein, EMBO J. (2014) July 1; 33(13):1428-37], but the idea that cellular stress might broadly regulate miRNA biogenesis was not yet tested. This hypothesis was tested herein by measurement of the relative expression levels of mature miRNAs and their precursors, pre-miRNAs, which provides a proxy for the efficacy of Dicer complex activity. […] Two other chemicals were tested that drive oxidative stress, namely Paraquat (PQ, 12 hrs, 1 mM) and sodium arsenite (1 hr, 0.5 mM). […] Therefore, several different cellular stress pathways negatively regulate miRNA biogenesis.

[2] = system: mouse embryonic motor neurons; test: Stress-induced change of miRNA biogenesis in primary mouse motor neurons; conditions: 5 nM, 72 hrs
Experimental: (FIG. 7A) miRNA expression level analysis in the motor neuron cell line NSC-34, treated with 6.25 nM Thapsigargin for 24 hrs, relative to cells treated with carrier alone (DMSO). Shown are average and s.d. of qPCR analyses of 3 independent experiments. Pre-miRNAs (light grey, normalized to Gapdh) and miRNAs (dark grey, normalized to Snord68). (FIG. 7B) mRNA levels encoding for proteins involved in the canonical stress response, normalized to the expression of beta-actin. (FIG. 7C) miRNA expression level analysis in mouse embryonic motor neurons, treated with 5 nM Thapsigargin for 72 hrs, relative to cells treated with carrier alone (DMSO). Shown are average and s.d. of qPCR analyses of three independent experiments. Pre-miRNAs (light grey, normalized to Gapdh and beta actin) and miRNAs (dark grey, normalized to Snord70). (FIG. 7D) mRNA markers of the canonical stress response, normalized to the expression of beta-actin. miRNA expression level analysis in NSC-34 cells, treated with Paraquat (PQ) (1 mM, 12 hrs, FIG. 7E) and sodium arsenite (0.5 mM, 60 min, FIG. 7F). pre-miRNA normalized to beta-actin mRNA (FIGS. 7E-F) and miRNAs to 5S (FIG. 7E) or to U6 and 5S (FIG. 7F). (FIGS. 7G-I) miRNA expression level analysis in mouse embryonic Wild-type fibroblasts (light grey) or phospho-mutant eIF2a S51A cells (black) treated with Thapsigargin (5 nM, 72 hrs) relative to carrier alone. […]

Compound: C=CCNC1=C2C[C@@H](C)C[C@H](OC)[C@H](O)[C@@H](C)/C=C(\C)[C@H](OC(N)=O)[C@@H](OC)/C=C\C=C(/C)C(=O)NC(=CC1=O)C2=O [17-AAG]
- Thapsigargin-induced inhibition of miRNA biogenesis (ratio of pre-miRNA to mature miRNA) ([1]; HSP90 inhibitor 1 μM, 5 hrs pretreatment, then 36 hrs with Thapsigargin 5 nM): aggravated Thapsigargin-induced inhibition of miRNA biogenesis

Compound: C[n+]1ccc(-c2cc[n+](C)cc2)cc1 [Paraquat]
- mature miRNAs (NSC-34 cells; PQ, 12 hrs, 1 mM): down-regulation of mature miRNAs
- pre-miRNA levels (NSC-34 cells; PQ, 12 hrs, 1 mM): up-regulation of pre-miRNA levels

Compound: COc1ccc(C[C@H](N)C(=O)N[C@H]2[C@@H](O)[C@H](n3cnc4c(N(C)C)ncnc43)O[C@@H]2CO)cc1 [Puromycin]
- efficacy of pre-miRNA biogenesis ([1]; 1 μg/ml, 24 hrs): decreased the efficacy of pre-miRNA biogenesis

Compound: C/C=C(/C)C(=O)O[C@H]1C(C)=C2[C@H]([C@@H]1OC(=O)CCCCCCC)[C@@](C)(OC(C)=O)C[C@H](OC(=O)CCC)[C@@]1(O)[C@H]2OC(=O)[C@@]1(C)O [Thapsigargin]
- markers of ER-stress [2]: up-regulated markers of ER-stress
- miRNA biogenesis [2]: affected miRNA biogenesis
- RNA markers of ER-stress: ASNS, ATF4, CHOP and GRP78 (NSC-34 cells; 6.25 nM, 24 hrs): up-regulation of RNA markers of ER-stress
- mature miRNAs levels (NSC-34 cells; 6.25 nM, 24 hrs): down-regulate mature miRNAs levels
- miRNA precursors levels (NSC-34 cells; 6.25 nM, 24 hrs): up-regulate miRNA precursors levels
- ATF4 mRNA levels ([1]; eIF2a S51A MEFs, 5 nM, 72 hrs): failed to upregulate ATF4 mRNA levels
- Dicer inhibition (pre-miRNA and mature miRNA levels) ([1]; eIF2a S51A MEFs, 5 nM, 72 hrs): partial recovery from Thapsigargin-induced Dicer inhibition
- mature miRNA species ([1]; wild-type MEFs, 5 nM, 72 hrs): relative depletion of the corresponding mature miRNA species
- pre-miRNAs ([1]; wild-type MEFs, 5 nM, 72 hrs): accumulation of pre-miRNAs

Reference: patent US10159670B2, “Methods of diagnosing and treating motor neuron diseases and other cellular stress-related diseases” (priority 2012, dated 2018)
